From patent US11603377B2, “MTORC1 modulators and uses thereof” (Aeovian Pharmaceuticals, Inc., priority 2020, dated 2023)

What was measured:
FKBP12 = FKBP12 (Homo sapiens (Human), UniProt P62942); assay: SPR assay to determine binding affinity to FKBP12 (direct binding); settings: immobilized biotinylated avi-FKBP12
mTORC2 = mTORC2 (Homo sapiens (Human), UniProt P42345+P62942); assay: mTORC2 inhibition, AlphaLISA of Phospho-AKT (pAKT pS473) in PC3 cells; assay type: cell-based
[1] = target: FKBP51 / FRB ternary complex (Homo sapiens (Human), UniProt P42345+Q13451); assay: SPR assay to characterize ternary complex formation with FKBP51 (FRB binding to rapalog-saturated FKBP51); settings: FRB dilutions with 100 nM rapalog on immobilized FKBP51
In short: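 SPR with biotinylated avi-FKBP51 on streptavidin chip (~200 RU); FRB (0.00011-20 μM, 3-fold series) injected with 100 nM rapalog, A-B-A mode keeping FKBP saturated with rapalog.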

[2] = target: FKBP12 / FRB ternary complex (Homo sapiens (Human), UniProt P42345+P62942); assay: SPR assay to characterize ternary complex formation with FKBP12 (FRB binding to rapalog-saturated FKBP12); settings: FRB dilutions with 100 nM rapalog on immobilized FKBP12
In short: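 Biotinylated avi-FKBP12 immobilized (~100 RU) on streptavidin chip; A-B-A injections kept FKBP12 saturated with 100 nM rapalog while FRB (0.00011–20 μM, 3-fold, 12 points) was injected 120 s.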

FKBP51 = FKBP51 (Homo sapiens (Human), UniProt Q13451); assay: SPR assay to determine binding affinity to FKBP51 (direct binding); settings: immobilized biotinylated avi-FKBP51
Chain of FKBP51 (Q13451 whole entry): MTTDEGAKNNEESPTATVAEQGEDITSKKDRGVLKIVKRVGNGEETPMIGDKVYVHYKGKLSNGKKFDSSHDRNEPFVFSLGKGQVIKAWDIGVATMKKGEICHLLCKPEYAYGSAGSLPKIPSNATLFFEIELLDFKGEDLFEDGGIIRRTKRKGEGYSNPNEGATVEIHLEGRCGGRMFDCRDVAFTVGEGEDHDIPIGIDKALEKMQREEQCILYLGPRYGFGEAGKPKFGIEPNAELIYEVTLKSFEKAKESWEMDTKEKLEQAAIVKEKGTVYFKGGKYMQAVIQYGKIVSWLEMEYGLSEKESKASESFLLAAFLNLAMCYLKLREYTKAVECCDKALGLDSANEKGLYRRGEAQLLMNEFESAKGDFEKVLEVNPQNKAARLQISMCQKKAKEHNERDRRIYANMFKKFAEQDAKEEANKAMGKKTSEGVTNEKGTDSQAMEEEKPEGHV
In short: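 Biotinylated avi-FKBP51 captured on streptavidin chip to about 2000 RU. Compounds injected at 0.5-1000 nM (8 points, 3-fold) for 120 s contact and 3600 s dissociation in 50 mM HEPES pH 7.5, 150 mM NaCl, 2 mM MgCl2, 1 mM DTT, 0.05% Tween-20, 1% DMSO.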

mTORC1 = mTORC1 (Homo sapiens (Human), UniProt P42345+P62942); assay: mTORC1 inhibition, AlphaLISA of Phospho-p70 S6 kinase (p70S6K pT389) in PC-3 cells; assay type: cell-based; settings: inhibition of p70S6K pT389 levels

Chain of FKBP12 (P62942 whole entry): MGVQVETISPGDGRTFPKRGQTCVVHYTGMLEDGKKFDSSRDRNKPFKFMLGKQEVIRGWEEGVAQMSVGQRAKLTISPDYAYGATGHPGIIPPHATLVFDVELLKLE

SMILES | Kd (FKBP12) | mTORC2 % inhibition at 1 uM (mTORC2) | Kd [1] | Kd [2] | Kd (FKBP51) | IC50 (mTORC1)
CO[C@@H]1C[C@H](C[C@@H](C)[C@@H]2CC(=O)[C@H](C)/C=C(\C)[C@@H](O)[C@@H](OC)C(=O)[C@H](C)C[C@H](C)/C=C/C=C/C=C(\C)[C@@H](NS(=O)(=O)CC3CCCC3)C[C@@H]3CC[C@@H](C)[C@@](O)(O3)C(=O)C(=O)N3CCCC[C@H]3C(=O)O2)CC[C@H]1O [Compound 23] | < 0.3 nM | A (A ≤20% inhibition at 1 micro Molar (uM)) | > 800 nM | > 800 nM | 10 to 100 nM | > 0.8 nM
COCCOCCOCCS(=O)(=O)N[C@H]1C[C@@H]2CC[C@@H](C)[C@@](O)(O2)C(=O)C(=O)N2CCCC[C@H]2C(=O)O[C@H]([C@H](C)C[C@@H]2CC[C@@H](O)[C@H](OC)C2)CC(=O)[C@H](C)/C=C(\C)[C@@H](O)[C@@H](OC)C(=O)[C@H](C)C[C@H](C)/C=C/C=C/C=C/1C [Compound 25] | < 0.3 nM | A (A ≤20% inhibition at 1 micro Molar (uM)) | > 800 nM | 300 to 800 nM | 10 to 100 nM | 0.1 to 0.8 nM
CO[C@@H]1C[C@H](C[C@@H](C)[C@@H]2CC(=O)[C@H](C)/C=C(\C)[C@@H](O)[C@@H](OC)C(=O)[C@H](C)C[C@H](C)/C=C/C=C/C=C(\C)[C@@H](OC3CCS(=O)(=O)C3)C[C@@H]3CC[C@@H](C)[C@@](O)(O3)C(=O)C(=O)N3CCCC[C@H]3C(=O)O2)CC[C@H]1O (stereo partly drawn) [Compound 26] | < 0.3 nM | A (A ≤20% inhibition at 1 micro Molar (uM)) | > 800 nM | > 800 nM | > 100 nM | > 0.8 nM
CO[C@@H]1C[C@H](C[C@@H](C)[C@@H]2CC(=O)[C@H](C)/C=C(\C)[C@@H](O)[C@@H](OC)C(=O)[C@H](C)C[C@H](C)/C=C/C=C/C=C(\C)[C@@H](OCCC3CCS(=O)(=O)C3)C[C@@H]3CC[C@@H](C)[C@@](O)(O3)C(=O)C(=O)N3CCCC[C@H]3C(=O)O2)CC[C@H]1O (stereo partly drawn) [Compound 27] | < 0.3 nM | A (A ≤20% inhibition at 1 micro Molar (uM)) | > 800 nM | > 800 nM | 10 to 100 nM | > 0.8 nM
CO[C@@H]1C[C@H](C[C@@H](C)[C@@H]2CC(=O)[C@H](C)/C=C(\C)[C@@H](O)[C@@H](OC)C(=O)[C@H](C)C[C@H](C)/C=C/C=C/C=C(\C)[C@@H](OCCC3CCO3)C[C@@H]3CC[C@@H](C)[C@@](O)(O3)C(=O)C(=O)N3CCCC[C@H]3C(=O)O2)CC[C@H]1O (stereo partly drawn) [Compound 28] | < 0.3 nM | B (B>20% and less than 40% inhibition at 1 uM) | > 800 nM | > 800 nM | 10 to 100 nM | 0.1 to 0.8 nM
CO[C@@H]1C[C@H](C[C@@H](C)[C@@H]2CC(=O)[C@H](C)/C=C(\C)[C@@H](O)[C@@H](OC)C(=O)[C@H](C)C[C@H](C)/C=C/C=C/C=C(\C)[C@@H](OCC3CCS(=O)(=O)C3)C[C@@H]3CC[C@@H](C)[C@@](O)(O3)C(=O)C(=O)N3CCCC[C@H]3C(=O)O2)CC[C@H]1O (stereo partly drawn) [Compound 30] | < 0.3 nM | A (A ≤20% inhibition at 1 micro Molar (uM)) | > 800 nM | > 800 nM | 10 to 100 nM | > 0.8 nM
CO[C@@H]1C[C@H](C[C@@H](C)[C@@H]2CC(=O)[C@H](C)/C=C(\C)[C@@H](O)[C@@H](OC)C(=O)[C@H](C)C[C@H](C)/C=C/C=C/C=C(\C)[C@@H](OCC3CCOC3)C[C@@H]3CC[C@@H](C)[C@@](O)(O3)C(=O)C(=O)N3CCCC[C@H]3C(=O)O2)CC[C@H]1O (stereo partly drawn) [Compound 31] | < 0.3 nM | A (A ≤20% inhibition at 1 micro Molar (uM)) | > 800 nM | > 800 nM | 10 to 100 nM | 0.1 to 0.8 nM
CO[C@@H]1C[C@H](C[C@@H](C)[C@@H]2CC(=O)[C@H](C)/C=C(\C)[C@@H](O)[C@@H](OC)C(=O)[C@H](C)C[C@H](C)/C=C/C=C/C=C(\C)[C@@H](OCCC3CCOC3)C[C@@H]3CC[C@@H](C)[C@@](O)(O3)C(=O)C(=O)N3CCCC[C@H]3C(=O)O2)CC[C@H]1O (stereo partly drawn) [Compound 32] | < 0.3 nM | A (A ≤20% inhibition at 1 micro Molar (uM)) | > 800 nM | 300 to 800 nM | 10 to 100 nM | 0.1 to 0.8 nM
COC1CC(CC(C)C2CC(=O)C(C)C=C(C)C(O)C(OC)C(=O)C(C)CC(C)C=CC=CC=C(C)C(OC3CCOCC3)CC3CCC(C)C(O)(O3)C(=O)C(=O)N3CCCCC3C(=O)O2)CCC1O (stereo not drawn) [Compound 33] | < 0.3 nM | A (A ≤20% inhibition at 1 micro Molar (uM)) | > 800 nM | > 800 nM | 10 to 100 nM | > 0.8 nM
CO[C@@H]1C[C@H](C[C@@H](C)[C@@H]2CC(=O)[C@H](C)/C=C(\C)[C@@H](O)[C@@H](OC)C(=O)[C@H](C)C[C@H](C)/C=C/C=C/C=C(\C)[C@@H](OCCC3COC3)C[C@@H]3CC[C@@H](C)[C@@](O)(O3)C(=O)C(=O)N3CCCC[C@H]3C(=O)O2)CC[C@H]1O [Compound 34] | < 0.3 nM | A (A ≤20% inhibition at 1 micro Molar (uM)) | > 800 nM | > 800 nM | 10 to 100 nM | > 0.8 nM
COC1CC(CC(C)C2CC(=O)C(C)C=C(C)C(O)C(OC)C(=O)C(C)CC(C)C=CC=CC=C(C)C(OC3CCOC3)CC3CCC(C)C(O)(O3)C(=O)C(=O)N3CCCCC3C(=O)O2)CCC1O (stereo not drawn) [Compound 35] | < 0.3 nM | A (A ≤20% inhibition at 1 micro Molar (uM)) | > 800 nM | > 800 nM | < 10 nM | > 0.8 nM
COC1CC(CC(C)C2CC(=O)C(C)C=C(C)C(O)C(OC)C(=O)C(C)CC(C)C=CC=CC=C(C)C(OCC3CCC3)CC3CCC(C)C(O)(O3)C(=O)C(=O)N3CCCCC3C(=O)O2)CCC1O (stereo not drawn) [Compound 36] | < 0.3 nM | B (B>20% and less than 40% inhibition at 1 uM) | > 800 nM | 300 to 800 nM | > 100 nM | 0.1 to 0.8 nM
COC1CC(CC(C)C2CC(=O)C(C)C=C(C)C(O)C(OC)C(=O)C(C)CC(C)C=CC=CC=C(C)C(OCCC3COC3)CC3CCC(C)C(O)(O3)C(=O)C(=O)N3CCCCC3C(=O)O2)CCC1OCCO (stereo not drawn) [Compound 38] | 0.3 to 1 nM | A (A ≤20% inhibition at 1 micro Molar (uM)) | > 800 nM | > 800 nM | 10 to 100 nM | 0.1 to 0.8 nM
COC1CC(CC(C)C2CC(=O)C(C)C=C(C)C(O)C(OC)C(=O)C(C)CC(C)C=CC=CC=C(C)C(OCC3CC3)CC3CCC(C)C(O)(O3)C(=O)C(=O)N3CCCCC3C(=O)O2)CCC1O (stereo not drawn) [Compound 39] | 0.3 to 1 nM | B (B>20% and less than 40% inhibition at 1 uM) | > 800 nM | 300 to 800 nM | > 100 nM | 0.1 to 0.8 nM
COC1CC(CC(C)C2CC(=O)C(C)C=C(C)C(O)C(OC)C(=O)C(C)CC(C)C=CC=CC=C(C)C(OCC3CCCC3)CC3CCC(C)C(O)(O3)C(=O)C(=O)N3CCCCC3C(=O)O2)CCC1O (stereo not drawn) [Compound 40] | > 1 nM | A (A ≤20% inhibition at 1 micro Molar (uM)) | > 800 nM | 300 to 800 nM | > 100 nM | 0.1 to 0.8 nM
COC1CC(CC(C)C2CC(=O)C(C)C=C(C)C(O)C(OC)C(=O)C(C)CC(C)C=CC=CC=C(C)C(OCC3CC(F)(F)C3)CC3CCC(C)C(O)(O3)C(=O)C(=O)N3CCCCC3C(=O)O2)CCC1O (stereo not drawn) [Compound 41] | 0.3 to 1 nM | A (A ≤20% inhibition at 1 micro Molar (uM)) | > 800 nM | > 800 nM | > 100 nM | > 0.8 nM
COC1CC(CC(C)C2CC(=O)C(C)C=C(C)C(O)C(OC)C(=O)C(C)CC(C)C=CC=CC=C(C)C(OCC3CC3)CC3CCC(C)C(O)(O3)C(=O)C(=O)N3CCCCC3C(=O)O2)CCC1OCCCO (stereo not drawn) [Compound 42] | > 1 nM | A (A ≤20% inhibition at 1 micro Molar (uM)) | > 800 nM | 300 to 800 nM | > 100 nM | > 0.8 nM
COC1CC(CC(C)C2CC(=O)C(C)C=C(C)C(O)C(OC)C(=O)C(C)CC(C)C=CC=CC=C(C)C(OCC3CC3)CC3CCC(C)C(O)(O3)C(=O)C(=O)N3CCCCC3C(=O)O2)CCC1OCCCO (stereo not drawn) [Compound 43] | > 1 nM | C (C≥40% and less than 60% inhibition at 1 uM) | < 300 nM | < 300 nM | > 100 nM | > 0.8 nM
COC1CC(CC(C)C2CC(=O)C(C)C=C(C)C(O)C(OC)C(=O)C(C)CC(C)C=CC=CC=C(C)C(OCC3CCC3)CC3CCC(C)C(O)(O3)C(=O)C(=O)N3CCCCC3C(=O)O2)CCC1OCCCO (stereo not drawn) [Compound 44] | > 1 nM | C (C≥40% and less than 60% inhibition at 1 uM) | > 800 nM | < 300 nM | > 100 nM | 0.1 to 0.8 nM
